Laboratory results published in patent US8067589B2, “Heterocyclic compounds useful in treating diseases and conditions” (Pfizer Inc, priority 2007, dated 2011).

target: human recombinant H-PGDS (Homo sapiens, UniProt O60760); assay: Fluoresecence Intensity h-PGDSTBA Enzyme Assay; conditions: IC50, 5.0 μM PGH2, 2.5 mM L-Glutathione, 10 min preincubation, 4-parameter fit, highest inhibitor concentration typically 1 μM
Sequence (O60760 whole entry): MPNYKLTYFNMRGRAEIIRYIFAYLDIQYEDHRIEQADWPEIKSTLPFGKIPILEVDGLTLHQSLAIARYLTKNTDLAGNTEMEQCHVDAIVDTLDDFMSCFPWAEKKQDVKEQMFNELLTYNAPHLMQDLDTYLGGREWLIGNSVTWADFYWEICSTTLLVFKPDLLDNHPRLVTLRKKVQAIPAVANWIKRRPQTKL

Compared with `N#Cc1cc(Cl)ccc1OCC(c1ccccc1)N1CCC(NC(=O)c2cnc(-c3cccc(F)c3)nc2)CC1` (centres unmarked) [Example 31, N-{1-[2-(4-Cchloro-2-cyanophenoxy)-1-phenylethyl]piperidin-4-yl}-2-(3-fluorophenyl)pyrimidine-5-carboxamide], `O=C(NC1CCN(C(COc2ccc(F)c(Cl)c2)c2ccccc2)CC1)c1cnc(-c2cccc(F)c2)nc1` (centres unmarked) [Example 42, N-{1-[2-(3-Chloro-4-fluorophenoxy)-1-phenylethyl]piperidin-4-yl}-2-(3-fluorophenyl)pyrimidine-5-carboxamide] is 7.1-fold higher in IC50: 7.68 nM for the first, 54.8 nM for the second. The first is the more potent here.

`O=C(NC1CCN(C(COc2c(F)cc(F)cc2F)c2ccccc2)CC1)c1cnc(-c2cccc(F)c2)nc1` (centres unmarked) [Example 32, 2-(3-Fluorophenyl)-N-{1-[1-phenyl-2-(2,4,6-trifluorophenoxy)ethyl]piperidin-4-yl}pyrimidine-5-carboxamide] and `O=C(NC1CCN(C(COc2cc(F)c(F)c(F)c2)c2ccccc2)CC1)c1cnc(-c2cccc(F)c2)nc1` (centres unmarked) [Example 50, 2-(3-Fluorophenyl)-N-{1-[1-phenyl-2-(3,4,5-trifluorophenoxy)ethyl]piperidin-4-yl}pyrimidine-5-carboxamide] are within 1.5-fold of each other in IC50: 8.91 nM for the first, 9.55 nM for the second.

First: O=C(NC1CCN(C(COc2c(F)ccc(Cl)c2F)c2ccccc2)CC1)c1cnc(-c2cccc(F)c2)nc1 (centres unmarked) [Example 33, N-{1-[2-(3-Chloro-2,6-difluorophenoxy)-1-phenylethyl]piperidin-4-yl}-2-(3-fluorophenyl)pyrimidine-5-carboxamide]
Second: Cc1ccc(Cl)c(OCC(c2ccccc2)N2CCC(NC(=O)c3cnc(-c4cccc(F)c4)nc3)CC2)c1F (centres unmarked) [Example 43, N-{1-[2-(6-Chloro-2-fluoro-3-methylphenoxy)-1-phenylethyl]piperidin-4-yl}-2-(3-fluorophenyl)pyrimidine-5-carboxamide]
The IC50 of the first is 2.3-fold lower: 15.5 nM for the first, 35 nM for the second. The first is the more potent here.

`O=C(NC1CCN(C(COc2cc(F)cc(F)c2)c2ccccc2)CC1)c1cnc(-c2cccc(F)c2)nc1` (centres unmarked) [Example 34, N-{1-[2-(3,5-Difluorophenoxy)-1-phenylethyl]piperidin-4-yl}-2-(3-fluorophenyl)pyrimidine-5-carboxamide] and `O=C(NC1CCN(C(COc2ccc(F)c(F)c2)c2ccccc2)CC1)c1cnc(-c2cccc(F)c2)nc1` (centres unmarked) [Example 49, N-{1-[2-(3,4-Difluorophenoxy)-1-phenylethyl]piperidin-4-yl}-2-(3-fluorophenyl)pyrimidine-5-carboxamide] are within 1.5-fold of each other in IC50: 6.46 nM for the first, 6.26 nM for the second.

`O=C(NC1CCN(CC2CC2)CC1)c1cnc(-c2cccc(F)c2)nc1` [Example 35, N-[1-(Cyclopropylmethyl)piperidin-4-yl]-2-(3-fluorophenyl)pyrimidine-5-carboxamide] and `O=C(NC1CCN(CC2CCCCC2)CC1)c1cnc(-c2cccc(F)c2)nc1` [Example 52, N-[1-(Cyclohexylmethyl)piperidin-4-yl]-2-(3-fluorophenyl)pyrimidine-5-carboxamide] are within 1.5-fold of each other in IC50: 0.62 nM for the first, 0.457 nM for the second.

Going from `O=C(NC1CCN(Cc2ccc(OC(F)(F)F)cc2)CC1)c1cnc(-c2cccc(F)c2)nc1` [Example 36, 2-(3-Fluorophenyl)-N-{1-[4-(trifluoromethoxy)benzyl]piperidin-4-yl}pyrimidine-5-carboxamide] to `O=C(NC1CCN(Cc2ccc(F)cc2)CC1)c1cnc(-c2cccc(F)c2)nc1` [Example 63, N-[1-(4-Fluorobenzyl)piperidin-4-yl]-2-(3-fluorophenyl)pyrimidine-5-carboxamide], the IC50 falls from 4.54 nM to 0.509 nM (8.9-fold). The second is the more potent here.

Going from `O=C(NC1CCN(Cc2ccc(C(F)(F)F)c(F)c2)CC1)c1cnc(-c2cccc(F)c2)nc1` [Example 37, 2-(3-Fluorophenyl)-N-{1-[3-fluoro-4-(trifluoromethyl)benzyl]piperidin-4-yl}pyrimidine-5-carboxamide] to `O=C(NC1CCN(Cc2cccc(F)c2)CC1)c1cnc(-c2cccc(F)c2)nc1` [Example 65, N-[1-(3-Fluorobenzyl)piperidin-4-yl]-2-(3-fluorophenyl)pyrimidine-5-carboxamide], the IC50 falls from 7.07 nM to 0.335 nM (21-fold).

First: O=C(NC1CCN(C(COc2ccccc2)c2ccccc2)CC1)c1cnc(-c2cccc(F)c2)nc1 (centres unmarked) [Example 38, 2-(3-Fluorophenyl)-N-[1-(2-phenoxy-1-phenylethyl)piperidin-4-yl]pyrimidine-5-carboxamide]
Second: O=C(NC1CCN(C(COc2cccc(Cl)c2)c2ccccc2)CC1)c1cnc(-c2cccc(F)c2)nc1 (centres unmarked) [Example 41, N-{1-[2-(3-Chlorophenoxy)-1-phenylethyl]piperidin-4-yl}-2-(3-fluorophenyl)pyrimidine-5-carboxamide]
The IC50 of the first is 1.5-fold lower: 6.71 nM for the first, 10.2 nM for the second. The first is the more potent here.

First: COc1cccc(OCC(c2ccccc2)N2CCC(NC(=O)c3cnc(-c4cccc(F)c4)nc3)CC2)c1 (centres unmarked) [Example 39, 2-(3-Fluorophenyl)-N-{1-[2-(3-methoxyphenoxy)-1-phenylethyl]piperidin-4-yl}pyrimidine-5-carboxamide]
Second: COc1ccc(OCC(c2ccccc2)N2CCC(NC(=O)c3cnc(-c4cccc(F)c4)nc3)CC2)cc1 (centres unmarked) [Example 58, 2-(3-Fluorophenyl)-N-{1-[2-(4-methoxyphenoxy)-1-phenylethyl]piperidin-4-yl}pyrimidine-5-carboxamide]
The IC50 of the first is 2.1-fold higher: 4.44 nM for the first, 2.08 nM for the second. The second is the more potent here.

Going from `N#Cc1cccc(OCC(c2ccccc2)N2CCC(NC(=O)c3cnc(-c4cccc(F)c4)nc3)CC2)c1` (centres unmarked) [Example 40, N-{1-[2-(3-Cyanophenoxy)-1-phenylethyl]piperidin-4-yl}-2-(3-fluorophenyl)pyrimidine-5-carboxamide] to `O=C(NC1CCN(C(COc2ccc(F)cc2)c2ccccc2)CC1)c1cnc(-c2cccc(F)c2)nc1` (centres unmarked) [Example 44, N-{1-[2-(4-Fluorophenoxy)-1-phenylethyl]piperidin-4-yl}-2-(3-fluorophenyl)pyrimidine-5-carboxamide], the IC50 rises from 3.02 nM to 16.2 nM (5.4-fold).

`Cc1cc(OCC(c2ccccc2)N2CCC(NC(=O)c3cnc(-c4cccc(F)c4)nc3)CC2)ccc1F` (centres unmarked) [Example 45, N-{1-[2-(4-Fluoro-3-methylphenoxy)-1-phenylethyl]piperidin-4-yl}-2-(3-fluorophenyl)pyrimidine-5-carboxamide] and `Cc1ccc(OCC(c2ccccc2)N2CCC(NC(=O)c3cnc(-c4cccc(F)c4)nc3)CC2)cc1C` (centres unmarked) [Example 56, N-{1-[2-(3,4-Dimethylphenoxy)-1-phenylethyl]piperidin-4-yl}-2-(3-fluorophenyl)pyrimidine-5-carboxamide] are the same in IC50: 14.2 nM for the first, 14.2 nM for the second.

`CCc1ccc(OCC(c2ccccc2)N2CCC(NC(=O)c3cnc(-c4cccc(F)c4)nc3)CC2)cc1` (centres unmarked) [Example 46, N-{1-[2-(4-Ethylphenoxy)-1-phenylethyl]piperidin-4-yl}-2-(3-fluorophenyl)pyrimidine-5-carboxamide] and `O=C(NC1CCN(C(COc2ccc(C(F)(F)F)cc2)c2ccccc2)CC1)c1cnc(-c2cccc(F)c2)nc1` (centres unmarked) [Example 48, 2-(3-Fluorophenyl)-N-(1-{1-phenyl-2-[4-(trifluoromethyl)phenoxy]ethyl}piperidin-4-yl)pyrimidine-5-carboxamide] are within 1.5-fold of each other in IC50: 23.8 nM for the first, 29.6 nM for the second.

`O=C(NC1CCN(C(COc2ccc(F)cc2F)c2ccccc2)CC1)c1cnc(-c2cccc(F)c2)nc1` (centres unmarked) [Example 47, N-{1-[2-(2,4-Difluorophenoxy)-1-phenylethyl]piperidin-4-yl}-2-(3-fluorophenyl)pyrimidine-5-carboxamide] and `O=C(NC1CCN(C(COc2cc(F)ccc2F)c2ccccc2)CC1)c1cnc(-c2cccc(F)c2)nc1` (centres unmarked) [Example 51, N-{1-[2-(2,5-Difluorophenoxy)-1-phenylethyl]piperidin-4-yl}-2-(3-fluorophenyl)pyrimidine-5-carboxamide] are within 1.5-fold of each other in IC50: 10.2 nM for the first, 10 nM for the second.

`O=C(NC1CCN(C(COc2cccc(F)c2F)c2ccccc2)CC1)c1cnc(-c2cccc(F)c2)nc1` (centres unmarked) [Example 53, N-{1-[2-(2,3-Difluorophenoxy)-1-phenylethyl]piperidin-4-yl}-2-(3-fluorophenyl)pyrimidine-5-carboxamide] and `O=C(NC1CCN(C(COc2ccc(F)c(F)c2F)c2ccccc2)CC1)c1cnc(-c2cccc(F)c2)nc1` (centres unmarked) [Example 55, 2-(3-Fluorophenyl)-N-{1-[1-phenyl-2-(2,3,4-trifluorophenoxy)ethyl]piperidin-4-yl}pyrimidine-5-carboxamide] are within 1.5-fold of each other in IC50: 59.2 nM for the first, 45.4 nM for the second.

First: COc1ccccc1OCC(c1ccccc1)N1CCC(NC(=O)c2cnc(-c3cccc(F)c3)nc2)CC1 (centres unmarked) [Example 54, 2-(3-Fluorophenyl)-N-{1-[2-(2-methoxyphenoxy)-1-phenylethyl]piperidin-4-yl}pyrimidine-5-carboxamide]
Second: Cc1cc(F)ccc1OCC(c1ccccc1)N1CCC(NC(=O)c2cnc(-c3cccc(F)c3)nc2)CC1 (centres unmarked) [Example 57, N-{1-[2-(4-Fluoro-2-methylphenoxy)-1-phenylethyl]piperidin-4-yl}-2-(3-fluorophenyl)pyrimidine-5-carboxamide]
The IC50 of the first is 1.9-fold lower: 6.13 nM for the first, 11.4 nM for the second. The first is the more potent here.

Compared with `Cc1ccc(F)c(OCC(c2ccccc2)N2CCC(NC(=O)c3cnc(-c4cccc(F)c4)nc3)CC2)c1` (centres unmarked) [Example 59, N-{1-[2-(2-Fluoro-5-methylphenoxy)-1-phenylethyl]piperidin-4-yl}-2-(3-fluorophenyl)pyrimidine-5-carboxamide], `O=C(NC1CCN(Cc2ccccc2F)CC1)c1cnc(-c2cccc(F)c2)nc1` [Example 64, N-[1-(2-Fluorobenzyl)piperidin-4-yl]-2-(3-fluorophenyl)pyrimidine-5-carboxamide] is 51-fold lower in IC50: 8.16 nM for the first, 0.16 nM for the second. The second is the more potent here.

First: Cc1nc(N2CCC(NC(=O)c3cnc(-c4cccc(F)c4)nc3)CC2)[nH]c(=O)c1CCO [Example 60, 2-(3-Fluorophenyl)-N-{1-[5-(2-hydroxyethyl)-4-methyl-6-oxo-1,6-dihydropyrimidin-2-yl]piperidin-4-yl}pyrimidine-5-carboxamide]
Second: CCCCN1CCC(NC(=O)c2cnc(-c3cccc(F)c3)nc2)CC1 [Example 61, N-(1-Butylpiperidin-4-yl)-2-(3-fluorophenyl)pyrimidine-5-carboxamide]
The IC50 of the first is 1.8-fold higher: 1.02 nM for the first, 0.58 nM for the second. The second is the more potent here.

`Cc1ccccc1CN1CCC(NC(=O)c2cnc(-c3cccc(F)c3)nc2)CC1` [Example 62, 2-(3-Fluorophenyl)-N-[1-(2-methylbenzyl)piperidin-4-yl]pyrimidine-5-carboxamide] was tested, and the IC50 was 0.489 nM.
